Publication PMC3066593, “Liposomal Tumor Targeting in Drug Delivery Utilizing MMP-2- and MMP-9-Binding Ligands” (Journal of Drug Delivery, 2010)
Positions of bridges follow the written chain, without caps; N, C: chain ends. Residues, ends and D or L forms follow the SMILES beside them.

Assays:
[1] = Hepatic accumulation of 125I-labelled peptides in normal mice; assay type: in vivo
Description: Radiolabeling of peptides and all liposomal formulations with iodine-125 (^125I) was performed using the IODOGEN (Pierce, Rockford, IL). The CTT2-PEG3400-DSPE peptide was labeled with ^125I using iodogen as a catalyst. 5 MBq of Na125I (Amersham, Buckinghamshire, England) in 0.5 ml PBS was added to a tube containing 10 μg dried iodogen and 100 μg CTT2-PEG3400-DSPE peptide construct. The mixture was incubated for 20 min at room temperature. The ^125I-bound particle fractions were purified by elution from PD-10 columns. The activity of the peptide was determined in a gamma counter (Cobra II, Packard Instruments).
Following single i.v. tracer doses of purified ^125I-CTT1-peptide (∼40 μg/mouse), ^125I-CTT2-peptide (∼40 μg/mouse), or CTT2-micelles (200 μg/mouse; 200 kBq), the percentage of the injected dose per gram of tissue (%ID/g) values, corrected for radioactive decay to the time of injection, were measured in tumor and major tissues/organs (heart, liver, kidney, lung, muscle, brain, spleen, and tumor) by sacrificing groups of normal mice or mice bearing serous ovarian hindleg xenografts (OV-90) at specified time points.

[2] = Mouse body weight during efficacy study; assay type: in vivo, NMRI nude mice; details: at day 9; 9 mg/kg doxorubicin equivalents at day 0, 3 and 6; mean of 9 mice; weights returned to initial levels one week later
Description: (§1) Therapeutic efficacy studies were conducted in subcutaneous A2780 xenografts using doxorubicin, administered as either CTT2-SL liposomes or Caelyx. Commercially available nonliposomal (“free”) drug (i.e., doxorubicin) and saline dilution buffer were used as treatment controls. A2780 ovarian cancer cells (5×10^6 in 100 μl PBS) were injected subcutaneously into the posterior flanks of NMRI nude mice (n = 40). Mice received i.v. bolus injections of CTT2-SL liposome, Caelyx, doxorubicin, and buffer. CTT2-SL liposomes were injected when tumor volumes reached 65 mm^3, while administration of Caelyx and doxorubicin to different xenograft mice was offset in time from CTT2-SL liposomes by 3 and 6 days, respectively. Doxorubicin, CTT2-SL liposomes, and Caelyx were injected at doses of 9 mg/kg each. Mouse body weights were monitored throughout the study period.

A2780 xenografts = assay: Therapeutic efficacy (survival) in subcutaneous A2780 xenografts; assay type: in vivo, NMRI nude mice; details: 9 mg/kg i.v.
Description: as §1

CC(C)C[C@@H]1NC(=O)[C@H]([C@@H](C)O)NC(=O)[C@H](Cc2ccccc2)NC(=O)CNC(=O)[C@H](Cc2c[nH]c3ccccc23)NC(=O)[C@H](Cc2c[nH]cn2)NC(=O)[C@H]([C@@H](C)O)NC(=O)[C@H]([C@@H](C)O)NC(=O)[C@@H](NC(=O)CNC(=O)[C@H](Cc2c[nH]cn2)NC(=O)[C@H](Cc2ccc(O)cc2)NC(=O)[C@H](CC(N)=O)NC(=O)[C@H](CCC(=O)O)NC(=O)[C@H](CCCNC(=N)N)NC(=O)CN)CSSC[C@@H](C(N)=O)NC1=O [CTT2-peptide] (H-GRENYHGCTTHWGFTLC-NH2; disulfide 8-17)
Hepatic clearance ([1]; normal mice, compared with CTT1-peptide): more rapid hepatic clearance

CC(C)C[C@@H]1NC(=O)[C@H]([C@@H](C)O)NC(=O)[C@H](Cc2ccccc2)NC(=O)CNC(=O)[C@H](Cc2c[nH]c3ccccc23)NC(=O)[C@H](Cc2c[nH]cn2)NC(=O)[C@H]([C@@H](C)O)NC(=O)[C@H]([C@@H](C)O)NC(=O)[C@@H](N)CSSC[C@@H](C(=O)O)NC1=O [CTT1-peptide] (H-CTTHWGFTLC-OH; disulfide 1-10)
Liver accumulation of peptide per gram of tissue relative to muscle ([1]; nontumor-bearing normal mice, n = 5, single i.v. tracer dose ~40 μg/mouse, 125I label, compared between CTT1- and CTT2-peptide (Figure 4)): greater liver accumulation

COc1cccc2c1C(=O)c1c(O)c3c(c(O)c1C2=O)C[C@@](O)(C(=O)CO)C[C@@H]3O[C@H]1C[C@H](N)[C@H](O)[C@H](C)O1 [Doxorubicin, doxorubicin]
Maximum body weight loss [2]: about 10% | Day at which live mice with tumor size exceeding 1000 mm^3 were sacrificed (A2780 xenografts): 24 days
